Results as given in ChEMBL document CHEMBL1143288, “(-)-Cercosporamide derivatives as novel antihyperglycemic agents” (Bioorg Med Chem Lett, 2009).
pIC50: −log10 of the molar value. Blank lines part the entries; values can stand above or below the compound they belong to. Calls of active or inactive are those of the source. The rule behind the calls is not given here.

Assays:
Mus musculus [1] = assay: Antihyperglycemic activity in hyperglycemic KK/Ta mouse assessed as change in plasma glucose level administered with diet in ratio of 0.1% for 1 week relative to control; format: functional
Mus musculus [2] = assay: Antihyperglycemic activity in hyperglycemic KK/Ta mouse assessed as effect on body weight administered with diet in ratio of 0.1% for 1 week measured on day 7 relative to control; format: ADME, organism-based; conditions: in vivo, po, 168 h
Mus musculus [3] = assay: Antihyperglycemic activity in hyperglycemic KK/Ta mouse assessed as effect on food intake administered with diet in ratio of 0.1% for 1 week measured on day 7 relative to control; format: ADME, organism-based; conditions: in vivo, po, 168 h
[4] = molecular target: T1, Protein kinase C alpha type (Homo sapiens, UniProt P17252); assay: Inhibition of PKCalpha at 1 uM
[5] = molecular target: T2, Protein kinase C beta type (Homo sapiens, UniProt P05771); assay: Inhibition of PKCbeta1 at 1 uM
Target sequence in this assay (P05771 2-671 limits assumed): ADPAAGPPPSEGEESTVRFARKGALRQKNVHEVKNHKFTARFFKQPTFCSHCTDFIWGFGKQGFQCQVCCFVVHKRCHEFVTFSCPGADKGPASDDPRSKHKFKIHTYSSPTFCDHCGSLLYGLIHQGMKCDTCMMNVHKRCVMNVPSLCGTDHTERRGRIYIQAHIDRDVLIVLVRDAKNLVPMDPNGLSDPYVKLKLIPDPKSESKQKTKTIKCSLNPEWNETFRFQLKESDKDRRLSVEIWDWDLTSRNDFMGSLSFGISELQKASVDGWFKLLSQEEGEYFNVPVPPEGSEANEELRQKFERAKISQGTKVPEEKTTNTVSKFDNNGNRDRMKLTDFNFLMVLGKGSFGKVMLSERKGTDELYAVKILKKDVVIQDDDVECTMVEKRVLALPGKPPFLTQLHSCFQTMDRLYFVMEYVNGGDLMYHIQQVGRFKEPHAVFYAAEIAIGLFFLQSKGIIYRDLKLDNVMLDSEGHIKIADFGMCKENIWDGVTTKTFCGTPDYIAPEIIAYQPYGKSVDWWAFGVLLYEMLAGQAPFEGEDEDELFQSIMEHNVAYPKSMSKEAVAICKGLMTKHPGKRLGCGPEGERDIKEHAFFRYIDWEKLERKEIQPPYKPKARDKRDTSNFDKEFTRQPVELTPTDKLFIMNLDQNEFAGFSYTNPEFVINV

[6] = molecular target: Protein kinase C delta type (Homo sapiens) (UniProt Q05655); assay: Inhibition of PKCdelta at 1 uM
[7] = molecular target: T3, Protein kinase C epsilon type (Homo sapiens) (UniProt Q02156); assay: Inhibition of PKCepsilon at 1 uM
T3 sequence (whole entry): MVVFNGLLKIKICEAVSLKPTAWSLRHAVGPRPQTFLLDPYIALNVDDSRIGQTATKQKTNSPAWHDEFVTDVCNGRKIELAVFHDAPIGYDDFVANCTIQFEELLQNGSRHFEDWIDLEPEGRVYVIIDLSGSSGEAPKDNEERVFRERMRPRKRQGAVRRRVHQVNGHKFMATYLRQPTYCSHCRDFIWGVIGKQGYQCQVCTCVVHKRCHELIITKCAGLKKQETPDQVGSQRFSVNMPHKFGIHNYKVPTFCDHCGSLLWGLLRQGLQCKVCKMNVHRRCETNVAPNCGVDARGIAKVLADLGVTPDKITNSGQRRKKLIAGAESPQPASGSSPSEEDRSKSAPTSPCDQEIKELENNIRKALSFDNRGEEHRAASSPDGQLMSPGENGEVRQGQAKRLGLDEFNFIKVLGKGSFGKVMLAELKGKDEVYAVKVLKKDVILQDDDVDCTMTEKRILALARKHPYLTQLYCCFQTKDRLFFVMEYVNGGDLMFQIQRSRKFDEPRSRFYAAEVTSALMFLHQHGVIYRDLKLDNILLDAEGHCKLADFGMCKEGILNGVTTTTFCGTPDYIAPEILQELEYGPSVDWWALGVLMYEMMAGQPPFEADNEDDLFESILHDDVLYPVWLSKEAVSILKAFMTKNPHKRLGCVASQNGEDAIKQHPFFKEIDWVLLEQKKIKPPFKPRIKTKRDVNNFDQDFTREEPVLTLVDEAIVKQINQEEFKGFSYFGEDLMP

[8] = molecular target: Protein kinase C eta type (Homo sapiens) (UniProt P24723); assay: Inhibition of PKCeta at 1 uM
[9] = molecular target: T4, Protein kinase C zeta type (Homo sapiens) (UniProt Q05513); assay: Inhibition of PKCzeta at 1 uM
T4 sequence (whole entry): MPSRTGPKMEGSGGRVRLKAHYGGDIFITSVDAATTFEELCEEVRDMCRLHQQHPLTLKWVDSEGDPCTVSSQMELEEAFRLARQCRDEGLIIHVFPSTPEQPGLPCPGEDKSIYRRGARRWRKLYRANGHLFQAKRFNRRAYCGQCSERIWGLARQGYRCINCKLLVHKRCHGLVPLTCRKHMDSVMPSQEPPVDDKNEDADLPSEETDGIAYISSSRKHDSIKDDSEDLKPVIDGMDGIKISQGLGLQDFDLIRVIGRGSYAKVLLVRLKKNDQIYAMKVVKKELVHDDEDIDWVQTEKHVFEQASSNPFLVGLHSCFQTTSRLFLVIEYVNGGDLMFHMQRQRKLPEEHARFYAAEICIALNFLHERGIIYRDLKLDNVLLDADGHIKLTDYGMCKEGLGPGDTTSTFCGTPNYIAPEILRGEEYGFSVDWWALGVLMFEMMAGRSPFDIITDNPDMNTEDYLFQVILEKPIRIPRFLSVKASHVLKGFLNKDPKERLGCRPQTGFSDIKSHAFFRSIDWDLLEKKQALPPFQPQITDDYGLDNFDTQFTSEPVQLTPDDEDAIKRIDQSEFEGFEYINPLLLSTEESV

Mus musculus [10] = assay: Antihyperglycemic activity in hyperglycemic KK/Ta mouse assessed as effect on body weight administered with diet in ratio of 0.03% for 1 week measured on day 7 relative to control; format: ADME, organism-based; conditions: in vivo, po, 168 h
Mus musculus [11] = assay: Antihyperglycemic activity in hyperglycemic KK/Ta mouse assessed as effect on food intake administered with diet in ratio of 0.03% for 1 week measured on day 7 relative to control; format: ADME, organism-based; conditions: in vivo, po, 168 h
Mus musculus [12] = assay: Antihyperglycemic activity in hyperglycemic KK/Ta mouse assessed as change in plasma glucose level administered with diet in ratio of 0.03% administered for 1 week relative to control; format: functional
[13] = molecular target: T2, Protein kinase C beta type; assay: Inhibition of PKCbeta2 at 1 uM
Target sequence in this assay (P05771 2-671 limits assumed): as the sequence (P05771 2-671 limits assumed) above

Protein kinase C-like 1 = molecular target: T5, Protein kinase C-like 1 (Candida albicans, UniProt P43057); assay: Inhibition of Candida albicans Pkc1 expressed in insect Sf9 cells by scintillation proximity assay
T5 sequence (P43057 whole entry): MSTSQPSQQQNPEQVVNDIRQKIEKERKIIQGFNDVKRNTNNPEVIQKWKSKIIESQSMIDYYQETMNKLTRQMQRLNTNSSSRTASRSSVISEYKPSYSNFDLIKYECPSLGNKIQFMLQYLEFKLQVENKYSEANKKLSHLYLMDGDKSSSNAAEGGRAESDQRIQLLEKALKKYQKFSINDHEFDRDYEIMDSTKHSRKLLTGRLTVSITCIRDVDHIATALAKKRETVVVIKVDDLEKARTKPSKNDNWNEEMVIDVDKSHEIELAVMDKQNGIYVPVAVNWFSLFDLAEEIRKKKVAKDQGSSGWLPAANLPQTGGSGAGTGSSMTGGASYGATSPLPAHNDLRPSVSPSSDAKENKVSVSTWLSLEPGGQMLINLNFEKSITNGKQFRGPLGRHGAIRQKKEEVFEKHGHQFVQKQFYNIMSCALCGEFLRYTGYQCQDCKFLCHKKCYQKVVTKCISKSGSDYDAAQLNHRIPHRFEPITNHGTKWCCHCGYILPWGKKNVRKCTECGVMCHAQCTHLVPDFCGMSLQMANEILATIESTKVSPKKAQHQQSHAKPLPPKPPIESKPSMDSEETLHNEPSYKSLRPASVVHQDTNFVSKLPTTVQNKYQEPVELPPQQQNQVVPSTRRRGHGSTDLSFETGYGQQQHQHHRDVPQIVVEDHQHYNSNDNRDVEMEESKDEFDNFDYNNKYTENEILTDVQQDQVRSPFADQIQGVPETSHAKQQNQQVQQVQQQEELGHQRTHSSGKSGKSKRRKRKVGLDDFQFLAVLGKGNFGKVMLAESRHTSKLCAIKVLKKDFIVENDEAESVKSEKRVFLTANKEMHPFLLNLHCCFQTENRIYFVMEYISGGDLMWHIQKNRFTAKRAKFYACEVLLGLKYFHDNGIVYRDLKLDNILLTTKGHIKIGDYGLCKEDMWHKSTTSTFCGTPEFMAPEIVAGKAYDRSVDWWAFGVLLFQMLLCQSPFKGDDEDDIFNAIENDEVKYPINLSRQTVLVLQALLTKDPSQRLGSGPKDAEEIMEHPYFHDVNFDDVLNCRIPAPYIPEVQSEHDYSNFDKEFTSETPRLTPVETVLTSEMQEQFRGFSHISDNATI

[14] = molecular target: T2, Protein kinase C beta type; assay: Inhibition of human PKCbeta by scintillation proximity assay
Target sequence in this assay (P05771 whole entry): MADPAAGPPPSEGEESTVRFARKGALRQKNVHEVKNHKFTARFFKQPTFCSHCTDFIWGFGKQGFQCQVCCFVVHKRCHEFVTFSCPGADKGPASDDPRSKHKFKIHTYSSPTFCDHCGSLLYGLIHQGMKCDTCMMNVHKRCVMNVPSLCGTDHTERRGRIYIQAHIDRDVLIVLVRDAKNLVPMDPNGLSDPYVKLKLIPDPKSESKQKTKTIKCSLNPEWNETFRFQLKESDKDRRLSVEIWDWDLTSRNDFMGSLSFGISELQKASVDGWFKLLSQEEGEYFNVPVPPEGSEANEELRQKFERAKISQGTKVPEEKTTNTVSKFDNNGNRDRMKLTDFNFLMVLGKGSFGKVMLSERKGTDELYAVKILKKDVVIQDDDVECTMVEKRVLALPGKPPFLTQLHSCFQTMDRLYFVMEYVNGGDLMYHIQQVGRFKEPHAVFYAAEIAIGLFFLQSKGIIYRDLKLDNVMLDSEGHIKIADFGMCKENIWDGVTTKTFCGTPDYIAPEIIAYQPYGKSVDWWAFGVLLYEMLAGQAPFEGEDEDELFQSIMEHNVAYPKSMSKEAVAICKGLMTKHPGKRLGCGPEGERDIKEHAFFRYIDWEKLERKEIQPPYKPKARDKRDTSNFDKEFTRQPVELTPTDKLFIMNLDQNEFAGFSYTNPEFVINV

[15] = molecular target: Protein kinase C gamma type (Homo sapiens, UniProt P05129); assay: Inhibition of human PKCgamma by scintillation proximity assay
[16] = molecular target: T1, Protein kinase C alpha type; assay: Inhibition of human PKCalpha by scintillation proximity assay
Mus musculus [17] = assay: Antihyperglycemic activity in hyperglycemic KK/Ta mouse assessed as plasma glucose level administered with diet in ratio of 0.003% for 1 week; format: functional
Mus musculus [18] = assay: Antihyperglycemic activity in hyperglycemic KK/Ta mouse assessed as body weight administered with diet in ratio of 0.003% for 1 week measured on day 7; format: ADME, organism-based; conditions: in vivo, po, 168 h
Mus musculus [19] = assay: Antihyperglycemic activity in hyperglycemic KK/Ta mouse assessed as food intake administered with diet in ratio of 0.003% for 1 week measured on day 7; format: ADME, organism-based; conditions: in vivo, po, 168 h
Mus musculus [20] = assay: Antihyperglycemic activity in hyperglycemic KK/Ta mouse assessed as plasma glucose level administered with diet in ratio of 0.01% for 1 week; format: functional
Mus musculus [21] = assay: Antihyperglycemic activity in hyperglycemic KK/Ta mouse assessed as body weight administered with diet in ratio of 0.01% for 1 week measured on day 7; format: ADME, organism-based; conditions: in vivo, po, 168 h
Mus musculus [22] = assay: Antihyperglycemic activity in hyperglycemic KK/Ta mouse assessed as food intake administered with diet in ratio of 0.01% for 1 week measured on day 7; format: ADME, organism-based; conditions: in vivo, po, 168 h
Mus musculus [23] = assay: Antihyperglycemic activity in hyperglycemic KK/Ta mouse assessed as plasma glucose level administered with diet in ratio of 0.03% for 1 week; format: functional
Mus musculus [24] = assay: Antihyperglycemic activity in hyperglycemic KK/Ta mouse assessed as body weight administered with diet in ratio of 0.03% for 1 week measured on day 7; format: ADME, organism-based; conditions: in vivo, po, 168 h
Mus musculus [25] = assay: Antihyperglycemic activity in hyperglycemic KK/Ta mouse assessed as food intake administered with diet in ratio of 0.03% for 1 week measured on day 7; format: ADME, organism-based; conditions: in vivo, po, 168 h
Mus musculus [26] = assay: Antihyperglycemic activity in hyperglycemic KK/Ta mouse assessed as plasma glucose level administered with diet in ratio of 0.1% for 1 week; format: functional
Mus musculus [27] = assay: Antihyperglycemic activity in hyperglycemic KK/Ta mouse assessed as body weight administered with diet in ratio of 0.1% for 1 week measured on day 7; format: ADME, organism-based; conditions: in vivo, po, 168 h
Mus musculus [28] = assay: Antihyperglycemic activity in hyperglycemic KK/Ta mouse assessed as food intake administered with diet in ratio of 0.1% for 1 week measured on day 7; format: ADME, organism-based; conditions: in vivo, po, 168 h

Sequence of Protein kinase C delta type (Homo sapiens) (Q05655 whole entry, looked up): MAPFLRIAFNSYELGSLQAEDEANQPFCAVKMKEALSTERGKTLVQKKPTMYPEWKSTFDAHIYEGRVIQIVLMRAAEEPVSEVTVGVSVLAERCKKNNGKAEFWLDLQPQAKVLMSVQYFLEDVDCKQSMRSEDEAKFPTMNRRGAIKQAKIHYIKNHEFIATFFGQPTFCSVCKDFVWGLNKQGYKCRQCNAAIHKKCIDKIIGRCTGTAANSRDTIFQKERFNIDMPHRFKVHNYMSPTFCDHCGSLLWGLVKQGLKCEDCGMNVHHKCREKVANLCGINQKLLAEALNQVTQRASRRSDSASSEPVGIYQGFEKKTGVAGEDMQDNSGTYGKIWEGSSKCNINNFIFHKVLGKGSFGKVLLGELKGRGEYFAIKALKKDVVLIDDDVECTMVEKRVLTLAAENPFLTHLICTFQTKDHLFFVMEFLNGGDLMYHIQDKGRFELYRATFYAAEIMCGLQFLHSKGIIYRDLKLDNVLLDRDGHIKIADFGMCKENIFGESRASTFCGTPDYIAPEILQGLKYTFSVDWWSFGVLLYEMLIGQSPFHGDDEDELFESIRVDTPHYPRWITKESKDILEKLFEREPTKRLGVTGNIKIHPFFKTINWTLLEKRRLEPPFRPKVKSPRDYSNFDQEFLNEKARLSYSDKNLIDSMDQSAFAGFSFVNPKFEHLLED
Sequence of Protein kinase C eta type (Homo sapiens) (P24723 whole entry): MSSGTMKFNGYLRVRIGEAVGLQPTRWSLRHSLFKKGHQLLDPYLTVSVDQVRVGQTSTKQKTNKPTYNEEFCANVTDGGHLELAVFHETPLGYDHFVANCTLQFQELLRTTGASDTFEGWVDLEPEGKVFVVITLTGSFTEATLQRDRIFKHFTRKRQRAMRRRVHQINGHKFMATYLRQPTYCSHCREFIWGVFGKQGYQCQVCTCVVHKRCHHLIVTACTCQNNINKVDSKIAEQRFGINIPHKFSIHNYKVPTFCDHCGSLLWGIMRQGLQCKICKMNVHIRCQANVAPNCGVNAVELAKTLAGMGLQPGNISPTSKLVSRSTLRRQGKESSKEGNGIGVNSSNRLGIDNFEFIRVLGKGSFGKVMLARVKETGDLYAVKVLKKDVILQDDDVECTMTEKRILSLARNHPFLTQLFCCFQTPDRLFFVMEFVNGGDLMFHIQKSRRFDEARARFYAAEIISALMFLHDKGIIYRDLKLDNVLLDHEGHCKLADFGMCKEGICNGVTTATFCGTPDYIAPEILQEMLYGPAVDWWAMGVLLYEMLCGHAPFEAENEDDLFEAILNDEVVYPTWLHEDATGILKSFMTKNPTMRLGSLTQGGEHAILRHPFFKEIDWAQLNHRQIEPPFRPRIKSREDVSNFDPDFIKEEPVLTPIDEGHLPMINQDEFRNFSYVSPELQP

Activity (Mus musculus [3]): 78%
Activity [4]: inactive
Activity [5]: inactive
Activity [6]: inactive
Activity [7]: inactive
Activity [8]: inactive
Activity [9]: inactive
Activity (Mus musculus [11]): 92%
Activity [13]: inactive
SMILES: CC(=O)C1=C(O)C=C2Oc3c4c(cc(O)c3[C@]2(C)C1=O)OC(C)(C)NC4=O
Activity (Mus musculus [1]): 56%
Activity (Mus musculus [2]): 102%
Activity (Mus musculus [10]): 102%
Activity (Mus musculus [12]): 35%

Activity (Mus musculus [3]): 37%
SMILES: COc1cc(O)c2c(c1C(N)=O)OC1=CC(O)=C(C(C)=O)C(=O)[C@]12C
Activity (Mus musculus [1]): 70%
Activity (Mus musculus [2]): 83%

Activity (Mus musculus [11]): 104%
SMILES: CC(=O)C1=C(O)C=C2Oc3c4c(cc(O)c3[C@]2(C)C1=O)OC1(CCCCC1)NC4=O
Activity (Mus musculus [10]): 104%
Activity (Mus musculus [12]): 38%

Activity (Mus musculus [3]): 95%
SMILES: COc1cc(OC)c2c(c1C(=O)N(C)C)OC1=CC(O)=C(C(C)=O)C(=O)[C@]12C
Activity (Mus musculus [1]): 14%
Activity (Mus musculus [2]): 96%

Activity (Mus musculus [11]): 94%
SMILES: CC(=O)C1=C(O)C=C2Oc3c4c(cc(O)c3[C@]2(C)C1=O)OC(C)(c1ccccc1)NC4=O (stereo partly specified)
Activity (Mus musculus [10]): 100%
Activity (Mus musculus [12]): 54%

Continued, compound first:

SMILES: CC(=O)C1=C(O)C=C2Oc3c(C(N)=O)c(O)cc(O)c3[C@]2(C)C1=O
pIC50 (Protein kinase C-like 1): 7.36
pIC50 [14]: 6.46
pIC50 [15]: 5.24
pIC50 [16]: 5.99
Activity (Mus musculus [17]): 571 mg/dL
Activity (Mus musculus [18]): 48.4 g
Activity (Mus musculus [19]): 5.78 g/day
Activity (Mus musculus [1]): 71%
Activity (Mus musculus [20]): 408 mg/dL
Activity (Mus musculus [21]): 47 g
Activity (Mus musculus [22]): 4.81 g/day
Activity (Mus musculus [23]): 272 mg/dL
Activity (Mus musculus [24]): 45.9 g
Activity (Mus musculus [25]): 3.65 g/day
Activity (Mus musculus [26]): 176 mg/dL
Activity (Mus musculus [27]): 39.1 g
Activity (Mus musculus [28]): 1.89 g/day
Activity (Mus musculus [2]): 83%
Activity (Mus musculus [3]): 34%

SMILES: CC1=NOC2C=C3Oc4c(C(N)=O)c(O)cc(O)c4[C@]3(C)C(=O)C12 (stereo partly specified)
Activity (Mus musculus [1]): 1%
Activity (Mus musculus [2]): 102%
Activity (Mus musculus [3]): 126%

SMILES: COc1cc(OC)c2c(c1C(N)=O)OC1=CC(O)=C(C(C)=O)C(=O)[C@]12C
Activity (Mus musculus [1]): 26%
Activity (Mus musculus [2]): 100%
Activity (Mus musculus [3]): 92%

SMILES: CC(=O)C1=C(O)CC2Oc3c(C(N)=O)c(O)cc(O)c3[C@]2(C)C1=O (stereo partly specified)
Activity (Mus musculus [1]): 29%
Activity (Mus musculus [2]): 101%
Activity (Mus musculus [3]): 111%

SMILES: CC(=O)C1=C(O)C=C2Oc3c4c(cc(O)c3[C@]2(C)C1=O)OC1(CCCC1)NC4=O
Activity (Mus musculus [10]): 102%
Activity (Mus musculus [11]): 106%
Activity (Mus musculus [12]): 7%
